Consider one compound from patent US20240238255A1, “KL1333 FOR USE IN MEDICINE” (ABLIVA AB, priority 2021, published 2024).

Format in all cases: in vivo, human
One data set has as its system healthy subjects. Kind of data set: Safety and tolerability in healthy subjects (Parts A, B, D). Here is the method:
Part A will comprise a randomised, single-dose, single-sequence, placebo-controlled study. Eight healthy subjects will be studied in a single cohort (Group A1). Potential subjects will be screened to assess their eligibility to enter the study within 28 days prior to the first dose administration. Subjects will participate in 2 treatment periods. For each treatment period, subjects will reside at the Phase I clinical site from Days −1 to 3 (48 hours postdose). Subjects will return to the clinical site for outpatient visits on Days 4 and 5. There will be at least a 10-day washout between doses (from Period 1, Day 1 to Period 2, Day 1).
Six subjects will be randomised to receive 25 mg KL1333 and 2 subjects will be randomised to receive placebo, and subjects will receive the same treatment in both treatment periods. On Treatment Period 1, Day 1, subjects will receive a single oral dose of study drug following an overnight fast of at least 8 hours. On Treatment Period 2, Day 1, subjects will receive a single oral dose of study drug after consuming a standard high-fat breakfast. Following review of safety, tolerability, and PK data, up to 2 additional dose cohorts of healthy subjects may be added if needed to determine the study treatment for
Part B will comprise a randomised, multiple-dose, sequential-group, placebo-controlled study. Sixteen healthy subjects will be studied in 2 cohorts (Groups B1 and B2), with each cohort consisting of 8 subjects. Part B may start after completion of Group A1, at a dose equal to or less than given in Part A.
On Day 1, 6 subjects will be randomised to receive KL1333 and 2 subjects will be randomised to receive placebo. The preliminary planned doses of KL1333 for Groups B1 and B2 are 25 and 50 mg, respectively, once daily (QD) on Days 1 to 10. Dose levels, dose frequency, and dietary state will be confirmed following review of safety, tolerability, and PK data from Part A and ongoing data from Part B. Additionally, a dose selection conference meeting will be held before each cohort in Part B where blinded data from the previous cohort will be reviewed before a decision is made about proceeding to the next cohort. Following review of safety, tolerability, and PK data, up to 3 additional dose cohorts of healthy subjects may be added to further explore the PK, safety, and tolerability of KL1333. If additional cohorts are required, each cohort will consist of 8 subjects, with 6 subjects receiving KL1333 and 2 subjects receiving placebo. The dose level will not exceed 600 mg, and the predicted exposure following multiple daily dose administration in any subject in Part B will not exceed an AUC0-24 of 51,800 ng.h/mL for derived total KL1333. There will be a minimum of 6 days between dose escalations for each cohort (between the last dose of one cohort and the first dose of the next cohort). Subjects will return for a Follow-up visit on Day 15, 5 days after their final dose.
Part D will comprise a randomised, multiple-dose, placebo-controlled study. Sixteen healthy subjects will be studied in 2 cohorts (Groups D1 and D2), with each cohort consisting of 8 subjects. Part D will start after completion of Part B, and the Part D groups may be run in parallel.
On Day 1, 6 subjects will be randomised to receive KL1333 and 2 subjects will be randomised to receive placebo. The doses of KL1333 for Groups D1 and D2 are 75 mg twice daily (BID) and 50 mg 3 times daily (TID), respectively, on Days 1 to 10 with a single dose administration on Day 10.
The safety and tolerability of KL1333 in healthy volunteers was explored at multiple ascending doses in part B and D of the study. Part D specifically explored if tolerability was improved by dividing the daily dose into two and three administrations respectively. Cohorts B3, D1 and D2 all received total daily doses of 150 mg for 10 days. Cohort B3 received 150 mg once daily (QD), cohort D1 received 75 mg twice daily (BID), and cohort D2 50 mg three times daily (TID). […]

Data set [1] deals with patients with primary mitochondrial disease. The data set is described as follows: 30 Second Sit-to-Stand Test in primary mitochondrial disease patients. The following applies: 50 mg QD for 10 days, versus placebo; number of sit to stand repetitions.
The test system of data set [2] is lactate/pyruvate ratio, serum niacinamide, serum xanthine. The data set is described as follows: Blood and serum biomarkers in PMD patients. As for the experimental part: FIG. 7. Lactate/Pyruvate ratio in PMD patients treated daily with 50 mg KL1333 (n=6) or placebo (n=2) for 10 days.
FIG. 8. Serum niacinamide is an early biomarker of response to KL1333 treatment. PMD patients were treated with 50 mg KL1333 QD (n=6) or placebo (n=2). The data are expressed as the ratio of the niacinamide concentrations in Day 2 and Day 1 serum samples.
FIG. 9. Serum xanthinse is an early biomarker of response to KL1333 treatment. PMD patients were treated with 50 mg KL1333 QD (n=6) or placebo (n=2). The data are expressed as the ratio of the xanthine concentrations in Day 2 and Day 1 serum samples.
For Parts B through D, blood biomarker assessments will include: • nicotinamide adenine dinucleotide (oxidized form; NAD^+)/nicotinamide adenine dinucleotide (reduced form; NADH) concentrations and ratio • fibroblast growth factor-21 (FGF21) • growth/differentiation factor-15 (GDF15) • lactate/pyruvate concentrations and ratio.

Where [3] appears, read: 50 mg QD, after one day of treatment (Day 2/Day 1).

For `CC(C)c1nc2c([nH]1)C(=O)C(=O)c1ccccc1-2` [KL1333], the “frequency and severity of loose stool episodes (Bristol Stool chart)” value with healthy subjects (150 mg daily for 10 days: 75 mg BID and 50 mg TID versus 150 mg QD) is “improved”. In addition, the tolerability entry is recorded as “tolerated” in the data set with healthy subjects (QD doses of 150 mg, healthy subjects); “poorly tolerated” in the data set on healthy subjects (QD doses of 250 mg, healthy subjects, GI TEAEs); “well tolerated” with healthy subjects (QD doses of 25 to 75 mg, healthy subjects); “well tolerated” in the data set with healthy subjects (single oral doses of 25 mg with or without food, healthy subjects). The “tolerability of BID or TID versus QD dosing” value in the data set on healthy subjects (daily doses of 150 mg, healthy subjects, GI-related adverse events) was “better tolerated”. The “clinical chemistry, hematology, urinalysis data” value in the data set with healthy subjects (mean or individual subject data during the study) is “no apparent treatment- or dose-related trends”. Besides, the “vital signs, 12-lead ECGs, physical examinations” value in the data set with healthy subjects (whole study) is recorded as “no apparent treatment- or dose-related trends”. Further, the serious adverse events entry in the data set on healthy subjects (whole study: 64 healthy volunteers and 8 patients, KL1333 or placebo) is given as “no serious adverse events”. For the same compound, the “30s Sit-to-stand test, mean change” value in data set [1] is “greater improvement”. Further, in data set [2] (setting [3]), the serum niacinamide entry was “increased”. Besides, the serum xanthine result in data set [2] (setting [3]) is on record as “increased”. Further, the “lactate/pyruvate ratio, Day 10 compared to Day 1” value in data set [2] (50 mg daily for 10 days (n=6), not seen in placebo) is given as “decreased”.
